Measurements taken from ChEMBL document CHEMBL1201862, “PubChem BioAssay data set” (2004).
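Results reflect a 48-hour exposure of cells in 96-well plates to compound at five concentrations. Abbreviation: GI50, concentration required for 50% inhibition of growth.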 Active and inactive are the calls of the source. No stated cut-off is given here; in the data, active = GI50 up to about 1.1 µM and inactive = higher.

Columns and labels:
Test in all cases: NCI tumour cell line growth inhibition, 48 h
A498 = tested on: A498
A549 = tested on: A549
ACHN = tested on: ACHN
COLO 205 = tested on: COLO 205
EKVX = tested on: EKVX
HOP-62 = tested on: HOP-62
HT-29 = tested on: HT-29
Hs-578T = tested on: Hs-578T
M14 = tested on: M14
MDA-MB-435 = tested on: MDA-MB-435
NCI-H23 = tested on: NCI-H23
NCI-H522 = tested on: NCI-H522
PC-3 = tested on: PC-3
SF-295 = tested on: SF-295
SK-OV-3 = tested on: SK-OV-3
SNB-75 = tested on: SNB-75
TK-10 = tested on: TK-10
UACC-62 = tested on: UACC-62
UO-31 = tested on: UO-31
OVCAR-5 = tested on: OVCAR-5

Measured: GI50

COc1cccc(C2SC(=N)Nc3c2c(C)nn3C(=O)Cc2ccccc2)c1 (stereo unspecified)
inactive: A498 > 100 µM | A549 > 100 µM | ACHN > 100 µM | COLO 205 > 100 µM | EKVX > 100 µM | HOP-62 > 100 µM | HT-29 > 100 µM | Hs-578T > 100 µM | M14 > 100 µM | MDA-MB-435 > 100 µM | NCI-H23 > 100 µM | NCI-H522 > 100 µM | PC-3 > 100 µM | SF-295 > 100 µM | SK-OV-3 > 100 µM | SNB-75 51.5 µM | TK-10 > 100 µM | UACC-62 > 100 µM | UO-31 > 100 µM

CC(=O)OCc1cc(CCC(=O)NCCNc2c3ccccc3nc3ccccc23)cc(COC(C)=O)c1O[Si](C)(C)C(C)(C)C
inactive: A498 1.91 µM | A549 7.13 µM | ACHN 13.8 µM | COLO 205 4.35 µM | EKVX 13.4 µM | HOP-62 13.6 µM | HT-29 2.63 µM | Hs-578T 3.3 µM | M14 5.26 µM | MDA-MB-435 2.97 µM | NCI-H23 14.5 µM | NCI-H522 5.5 µM | OVCAR-5 13.4 µM | PC-3 10.5 µM | SF-295 2.67 µM | SK-OV-3 13.9 µM | TK-10 7.46 µM | UACC-62 6.9 µM | UO-31 12.9 µM

CC(=O)OCC(C)C1=C(O)C(=O)C2(C)C/C=C(/C)CC/C=C(\C)CCC(O)C(C)CCC12 (stereo unspecified)
inactive: A498 21.6 µM | A549 18 µM | ACHN 16.7 µM | COLO 205 17.1 µM | EKVX 16.4 µM | HOP-62 17 µM | HT-29 17.3 µM | Hs-578T 19.6 µM | M14 17.8 µM | MDA-MB-435 17.5 µM | NCI-H23 17.8 µM | NCI-H522 17.3 µM | OVCAR-5 17.3 µM | PC-3 15.3 µM | SF-295 15.6 µM | SNB-75 16.2 µM | TK-10 19.6 µM | UACC-62 18.8 µM | UO-31 14.2 µM

O=C1NC2CCCCC2NC1=C(C(=O)c1ccccc1)C(=O)c1ccccc1 (stereo unspecified)
inactive: A498 > 100 µM | A549 34 µM | ACHN 33.6 µM | COLO 205 32.8 µM | EKVX 70.6 µM | HOP-62 52.6 µM | HT-29 36.8 µM | Hs-578T 62.8 µM | M14 66.4 µM | MDA-MB-435 46.6 µM | NCI-H23 22.4 µM | NCI-H522 18.9 µM | OVCAR-5 > 100 µM | PC-3 53 µM | SF-295 40.8 µM | SK-OV-3 25.4 µM | TK-10 84.1 µM | UACC-62 22.8 µM | UO-31 26.9 µM

COc1ccc(C2CC(c3ccc4ccccc4c3O)=NN2)cc1OC (stereo unspecified)
inactive: A498 52.6 µM | A549 38 µM | ACHN 54.5 µM | COLO 205 38.7 µM | HOP-62 54.6 µM | HT-29 47.5 µM | Hs-578T 76.7 µM | M14 66.2 µM | MDA-MB-435 27 µM | NCI-H23 49.9 µM | NCI-H522 40.1 µM | OVCAR-5 > 100 µM | PC-3 33.9 µM | SF-295 44.8 µM | SK-OV-3 > 100 µM | SNB-75 56.4 µM | TK-10 95.1 µM | UACC-62 42.4 µM | UO-31 46.2 µM

NC(=O)c1cc(-c2ccc(-n3ccnc3)cc2)nnc1O
inactive: A498 > 100 µM | A549 > 100 µM | ACHN > 100 µM | COLO 205 > 100 µM | EKVX > 100 µM | HOP-62 > 100 µM | Hs-578T > 100 µM | M14 > 100 µM | MDA-MB-435 > 100 µM | NCI-H23 > 100 µM | NCI-H522 > 100 µM | OVCAR-5 > 100 µM | PC-3 > 100 µM | SK-OV-3 > 100 µM | SNB-75 > 100 µM | TK-10 > 100 µM | UACC-62 > 100 µM | UO-31 > 100 µM

CCC(C)C(NC(=O)C(CCCCN)NC(=O)C(NC(=O)C(CCC(N)=O)NC(=O)C(CCCNC(=N)N)NC(C)=O)C(C)CC)C(=O)NC(Cc1c[nH]c2ccccc12)C(=O)NC(Cc1ccccc1)C(=O)NC(CCC(N)=O)C(=O)NC(CC(N)=O)C(=O)NC(CCCNC(=N)N)C(=O)NC(CCCNC(=N)N)C(=O)NC(CCSC)C(=O)NC(CCCCN)C(=O)NC(Cc1c[nH]c2ccccc12)C(=O)NC(CCCCN)C(=O)NC(CCCCN)C(N)=O (stereo unspecified)
inactive: A498 > 50 µM | A549 > 50 µM | ACHN > 50 µM | COLO 205 38.3 µM | EKVX > 50 µM | HOP-62 39.6 µM | HT-29 > 50 µM | Hs-578T > 50 µM | M14 17.9 µM | MDA-MB-435 17.5 µM | NCI-H23 > 50 µM | NCI-H522 > 50 µM | OVCAR-5 11.1 µM | PC-3 > 50 µM | SF-295 > 50 µM | SK-OV-3 31.7 µM | TK-10 > 50 µM | UACC-62 > 50 µM
